≈ marks a conversion by molar mass, not a printed value. Where two headings read alike, the source gives them in different places.
Columns and labels:
[1] = test system: mouse allogenic mixed lymphocyte reaction (BALB/c responder, C57BL/6 stimulator spleen cells); test: mouse allogenic mixed lymphocyte reaction (MLR), blastogenesis by 3H-thymidine uptake; type: cell-based
Method: The immunosuppressive activity of the compounds (I) and their lactones was assayed by using mouse allogenic mixed lymphocyte reaction (hereinafter sometimes abbreviated as MLR). Mouse allogenic MLR was carried out by mixed culture of the BALB/c mouse (H-2^d) spleen cells as the responder cells and the mitomycin C-treated C57BL/6 (H-2^b) spleen cells as the stimulator cells in equal amounts.
The responder cells were prepared as follows: The spleen was resected from 5- to 6-week-old male BALB/c mice, and single cell suspension of spleen cells was prepared by using the RPMI1640 culture medium (containing 60 μg/ml of kanamycin sulfate, 2 mM of L-glutamine, 10 mM of N-2-hydroxyethylpiperazine-N'-2-ethanesulfonate (HEPES) and 0.1% sodium hydrogencarbonate) to which heat-inactivated fetal calf serum (hereinaftersometimes abbreviated as FCS) had been added to 5%. After hemolytic treatment, the cell suspension was adjusted to a concentration of 10^7 cells/ml by using the RPMI1640 culture medium supplemented with 10^-4 M 2-mercaptoethanol and 20% FCS, and was used as the responder cell suspension.
The stimulator cells were prepared as follows:
The spleen was resected from 5- to 6-week-old male C57BL/6 mice, and single cell suspension of spleen cells was prepared by using the RPMI1640 culture medium. After hemolytic treatment, the cells were treated with 40 μg/ml of mitomycin C at 37° C. for 60 minutes. After washing three times, the concentration of the cell suspension was adjusted to 10^7 cells/ ml by using the RPMI1640 culture medium supplemented with 10^-4 M 2-mercaptoethanol and 20% FCS, and was used as the stimulator cell suspension.
Fifty μl of the responder cell suspension, 50μl of the stimulator cell suspension prepared by the above method, and 100 μl of the test substance were placed in 96-well microculture plates, and were cultured at 37° C. in an atmosphere of 5% carbon dioxide for 4 days.
The blastogenesis of lymphocytes was assayed by a method of ^3 H-thymidine uptake as an index. That is, after termination of the culture, 0.5 μCi/well of ^3 H-thymidine was added and cultured for 4 hours. Cells were harvested by a cell-harvester, and the radioactivity incorporated into the cells was determined by a liquid scintillation counter to obtain the index of blastogenesis of lymphocytes in the mouse allogenic MLR. The suppression of the mouse allogenic MLR was evaluated by calculating the percent suppression by the following formula. [formula]
The test substance was dissolved in methanol or suspended in a mixture of methanol and acetic acid, and then diluted with the RPMI1640 culture medium.

[2] = body weight, wet weight of thymus and spleen, number of spleen cells in SRBC-immunized mice; type: in vivo, mouse
Method: (§1) Males 5- to 7-week-old BALB/c mice were immunized with sheep red blood cells (SRBC), and the spleen was resected three or four days later. By counting the plaque forming cells (PFC), suppressive effect on the production of the anti-sheep red blood cell antibody was examined as follows.
(§2) BALB/c mice were immunized with SRBC (1×10^7 cells/mouse, intravenous administration), and ISP-I in the Example 1 was administered intraperitoneally for 4 consecutive days from the day of immunization. Four days after immunization (the next day of the final administration), the spleen was resected and the anti-sheep red blood cell antibody-producing cells were determined by the direct plaque method. At the same time the body weight of the mouse, wet weight of the thymus and the spleen, and numbers of spleen cells were also determined.
as §2, with “(5×10^7” for “(1×10^7”, “the compound” for “ISP-I”, “5” for “1”, “resected,” for “resected”, “time,” for “time”

[3] = test system: anti-sheep red blood cell antibody production in BALB/c mice; test: suppression of mouse anti-sheep red blood cell antibody production (PFC); type: in vivo
Method: as §1, §2
as §2, with “(5×10^7” for “(1×10^7”, “the compound” for “ISP-I”, “5” for “1”, “resected,” for “resected”, “time,” for “time”

[4] = Mus musculus, Lymphocyte, 0.001 μg/ml, read-out: Suppression
[5] = Mus musculus, Lymphocyte, 0.01 μg/ml, read-out: Suppression
[6] = Mus musculus, Lymphocyte, 0.1 μg/ml, read-out: Suppression
[7] = Experiment 2, 10 mg/kg/day i.p., 4 days
[8] = Mus musculus, Lymphocyte, read-out: Suppression
[9] = Experiment 1, 0.3 mg/kg/day i.p., 4 days
[10] = Experiment 1, 1 mg/kg/day i.p., 4 days
[11] = Experiment 1, 3 mg/kg/day i.p., 4 days

Work on CCCCCCC(O)CCCCCC/C=C/CC(O)C(O)C(N)(CO)C(=O)O (stereo not drawn) [Example 6] yielded a 3H-thymidine uptake ([1]; 0.001 μg/ml) of 16237 cpm, a 3H-thymidine uptake ([1]; 0.01 μg/ml) of 9276 cpm and a 3H-thymidine uptake ([1]; 0.1 μg/ml) of 3017 cpm. It also gave an inhibition at 0.001 µg/mL [1, 4] of 52.3%, an inhibition at 0.01 µg/mL [1, 5] of 85.4% and an inhibition at 0.1 µg/mL [1, 6] of 100%.

With CCCCCCC(O)CCCCCC/C=C/CC1OC(=O)C(N)(CO)C1O (stereo not drawn) [Example 8] the Body weight ([2]; Table 12B, 10 mg/kg/day) was 18 ± 1 g, the “Number of spleen cells” value ([2]; Table 12B, 10 mg/kg/day) was 1.3 ± 0.2 × 10^8 cell and the Wet weight spleen ([2]; Table 12B, 10 mg/kg/day) was 103 ± 30 mg. For the same molecule, the Wet weight thymus ([2]; Table 12B, 10 mg/kg/day) was 25 ± 9 mg, the 3H-thymidine uptake ([1]; 0.001 μg/ml) was 22815 cpm and the 3H-thymidine uptake ([1]; 0.01 μg/ml) was 3081 cpm. The 3H-thymidine uptake ([1]; 0.1 μg/ml) was 1586 cpm, the inhibition at 0.001 µg/mL [1, 4] was 21.1% and the inhibition at 0.01 µg/mL [1, 5] was 100%. The inhibition at 0.1 µg/mL [1, 6] was 100%, the “Number of PFC per 1 × 10^7 cell” value ([3]; Table 12B, 10 mg/kg/day) was 6.7 ± 1.2 × 10^3 /1 × 10^7 cell and the “Number of PFC per spleen” value ([3]; Table 12B, 10 mg/kg/day) was 8.5 ± 1.9 × 10^4 /spleen.

Molecule CCCCCCC(=O)CCCCCC/C=C/CC1OC(=O)C(N)(CO)C1O (stereo not drawn) [Example 4] has a 3H-thymidine uptake ([1]; 0.001 μg/ml) of 29598 cpm, a 3H-thymidine uptake ([1]; 0.01 μg/ml) of 10394 cpm and a 3H-thymidine uptake ([1]; 0.1 μg/ml) of 1414 cpm. The inhibition at 0.001 µg/mL [1, 4] was 0.4%, the inhibition at 0.01 µg/mL [1, 5] was 70% and the inhibition at 0.1 µg/mL [1, 6] was 100%.

For CCCCCCC(O)CCCCCCCCCC1OC(=O)C(N)(CO)C1O (stereo not drawn) [Example 10], the 3H-thymidine uptake ([1]; 0.001 μg/ml) was 19595 cpm, the 3H-thymidine uptake ([1]; 0.01 μg/ml) was 19019 cpm and the 3H-thymidine uptake ([1]; 0.1 μg/ml) was 2405 cpm. It also gave an inhibition at 0.001 µg/mL [1, 4] of 36.4%, an inhibition at 0.01 µg/mL [1, 5] of 39.1% and an inhibition at 0.1 µg/mL [1, 6] of 100%.

CCCCCCC(O)CCCCCCCCCC(O)C(O)C(N)(CO)C(=O)O (stereo not drawn) [Example 9] gave a 3H-thymidine uptake ([1]; 0.001 μg/ml) of 25682 cpm, a 3H-thymidine uptake ([1]; 0.01 μg/ml) of 23668 cpm and a 3H-thymidine uptake ([1]; 0.1 μg/ml) of 3167 cpm. It also gave an inhibition at 0.001 µg/mL [1, 4] of 7.5%, an inhibition at 0.01 µg/mL [1, 5] of 17.1% and an inhibition at 0.1 µg/mL [1, 6] of 100%.

With CCCCCCC(=O)CCCCCCCCCC(O)C(O)C(N)(CO)C(=O)O (stereo not drawn) [Example 5] the Body weight ([2]; Experiment 2, 10 mg/kg/day) was 24 ± 1 g, the “Number of spleen cells” value ([2]; Experiment 2, 10 mg/kg/day) was 2.3 ± 0.3 × 10^8 cell and the Wet weight spleen ([2]; Experiment 2, 10 mg/kg/day) was 239 ± 40 mg. It also gave a Wet weight thymus ([2]; Experiment 2, 10 mg/kg/day) of 52 ± 5 mg, a 3H-thymidine uptake ([1]; 0.001 μg/ml) of 22321 cpm and a 3H-thymidine uptake ([1]; 0.01 μg/ml) of 8182 cpm. For the same molecule, the 3H-thymidine uptake ([1]; 0.1 μg/ml) was 1952 cpm, the inhibition at 0.001 µg/mL [1, 4] was 23.5% and the inhibition at 0.01 µg/mL [1, 5] was 90.6%. The inhibition at 0.1 µg/mL [1, 6] was 100%, the “Number of PFC per 1 × 10^7 cell” value [3, 7] was 5.6 ± 1.7 × 10^3 /1 × 10^7 cell and the “Number of PFC per spleen” value [3, 7] was 12.9 ± 3.9 × 10^4 /spleen.

In the case of CCCCCCC(=O)CCCCCCCCCC1OC(=O)C(N)(CO)C1O (stereo not drawn) [Example 7], the 3H-thymidine uptake ([1]; 0.001 μg/ml) was 24446 cpm, the 3H-thymidine uptake ([1]; 0.01 μg/ml) was 34378 cpm and the 3H-thymidine uptake ([1]; 0.1 μg/ml) was 3546 cpm. The inhibition at 0.001 µg/mL [1, 4] was 13.4%, the inhibition at 0.01 µg/mL [1, 5] was 0% and the inhibition at 0.1 µg/mL [1, 6] was 100%.

CCCCCCC(=O)CCCCCC/C=C/CC1OC(=O)C(CO)(NC(C)=O)C1O (stereo not drawn) [Example 11] gave a 3H-thymidine uptake ([1]; 0.001 μg/ml) of 32597 cpm, a 3H-thymidine uptake ([1]; 0.01 μg/ml) of 30777 cpm and a 3H-thymidine uptake ([1]; 0.1 μg/ml) of 23430 cpm. The inhibition at 0.001 µg/mL [1, 4] was 0%, the inhibition at 0.01 µg/mL [1, 5] was 0% and the inhibition at 0.1 µg/mL [1, 6] was 18.2%.

In the case of CCCCCCC(=O)CCCCCC/C=C/CC(O)C(O)C(N)(CO)C(=O)O (stereo not drawn) [Example 1], the “Number of spleen cells” value ([2]; Experiment 1, 0.3 mg/kg/day) was 1.4 ± 0.3 × 10^8 cell, the “Number of spleen cells” value ([2]; Experiment 1, 1 mg/kg/day) was 1.3 ± 0.4 × 10^8 cell and the “Number of spleen cells” value ([2]; Experiment 1, 3 mg/kg/day) was 1.3 ± 0.2 × 10^8 cell. The Body weight ([2]; mouse, in vivo, 0.3 mg/kg/day) was 23 ± 2 g, the Wet weight spleen ([2]; mouse, in vivo, 0.3 mg/kg/day) was 202 ± 4 mg and the Wet weight thymus ([2]; mouse, in vivo, 0.3 mg/kg/day) was 48 ± 5 mg. It also gave a Body weight ([2]; mouse, in vivo, 1 mg/kg/day) of 23 ± 1 g, a Wet weight spleen ([2]; mouse, in vivo, 1 mg/kg/day) of 206 ± 32 mg and a Wet weight thymus ([2]; mouse, in vivo, 1 mg/kg/day) of 50 ± 1 mg. The Body weight ([2]; mouse, in vivo, 3 mg/kg/day) was 19 ± 1 g, the Wet weight spleen ([2]; mouse, in vivo, 3 mg/kg/day) was 137 ± 17 mg and the Wet weight thymus ([2]; mouse, in vivo, 3 mg/kg/day) was 25 ± 14 mg. For the same molecule, the 3H-thymidine uptake ([1]; 0.001 μg/ml) was 14760 cpm, the 3H-thymidine uptake ([1]; 0.01 μg/ml) was 6436 cpm and the 3H-thymidine uptake ([1]; 0.1 μg/ml) was 686 cpm. For the same molecule, the 3H-thymidine uptake ([1]; 1 μg/ml) was 698 cpm, the IC50 ([1]; Mus musculus, Lymphocyte, read-out: 50%-inhibition concentration (IC50)) was 7.1 ng/mL (≈ 0.0177 µM) and the inhibition at 0.001 µg/mL [1, 8] was 0%. It also gave an inhibition at 0.01 µg/mL [1, 8] of 59.2%, an inhibition at 0.1 µg/mL [1, 8] of 100% and an inhibition at 1 µg/mL [1, 8] of 100%. For the same molecule, the “Number of PFC per 1 × 10^7 cell” value [3, 9] was 1.4 ± 0.4 × 10^3 /1 × 10^7 cell, the “Number of PFC per spleen” value [3, 9] was 0.9 ± 0.3 × 10^4 /spleen and the “Number of PFC per 1 × 10^7 cell” value [3, 10] was 0.5 ± 0.2 × 10^3 /1 × 10^7 cell. For the same molecule, the “Number of PFC per spleen” value [3, 10] was 0.3 ± 0.1 × 10^4 /spleen, the “Number of PFC per 1 × 10^7 cell” value [3, 11] was 0.2 ± 0.1 × 10^3 /1 × 10^7 cell and the “Number of PFC per spleen” value [3, 11] was 0.1 ± 0.0 × 10^4 /spleen.
